biological target: Phosphatidylinositol 3-kinase regulatory subunit alpha/4,5-bisphosphate 3-kinase catalytic subunit alpha isoform (Homo sapiens, UniProt P27986+P42336); experiment: Inhibition of human PI3Kalpha (p110alpha/p85alpha) by ADP accumulation based HTRF assay
Sequence (P27986 whole entry, canonical isoform): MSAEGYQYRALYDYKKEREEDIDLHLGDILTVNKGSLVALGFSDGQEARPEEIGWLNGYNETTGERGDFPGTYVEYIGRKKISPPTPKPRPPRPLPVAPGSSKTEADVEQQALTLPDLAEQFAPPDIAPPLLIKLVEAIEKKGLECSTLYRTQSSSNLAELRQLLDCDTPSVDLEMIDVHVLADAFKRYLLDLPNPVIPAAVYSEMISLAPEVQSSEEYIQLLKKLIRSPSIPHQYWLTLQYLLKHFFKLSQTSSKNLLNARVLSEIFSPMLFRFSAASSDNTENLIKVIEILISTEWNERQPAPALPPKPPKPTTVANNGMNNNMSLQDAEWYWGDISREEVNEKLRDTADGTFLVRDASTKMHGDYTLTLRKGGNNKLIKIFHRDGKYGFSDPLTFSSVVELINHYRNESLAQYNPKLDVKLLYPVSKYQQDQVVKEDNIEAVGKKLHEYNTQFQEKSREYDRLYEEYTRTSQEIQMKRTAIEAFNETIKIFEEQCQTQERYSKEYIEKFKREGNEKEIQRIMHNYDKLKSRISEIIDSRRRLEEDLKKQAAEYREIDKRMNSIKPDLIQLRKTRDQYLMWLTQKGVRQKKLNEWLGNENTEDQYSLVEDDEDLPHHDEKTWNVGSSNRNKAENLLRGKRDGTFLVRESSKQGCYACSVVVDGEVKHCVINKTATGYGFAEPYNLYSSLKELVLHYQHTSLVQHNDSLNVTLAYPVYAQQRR
Sequence (P42336 whole entry, canonical isoform): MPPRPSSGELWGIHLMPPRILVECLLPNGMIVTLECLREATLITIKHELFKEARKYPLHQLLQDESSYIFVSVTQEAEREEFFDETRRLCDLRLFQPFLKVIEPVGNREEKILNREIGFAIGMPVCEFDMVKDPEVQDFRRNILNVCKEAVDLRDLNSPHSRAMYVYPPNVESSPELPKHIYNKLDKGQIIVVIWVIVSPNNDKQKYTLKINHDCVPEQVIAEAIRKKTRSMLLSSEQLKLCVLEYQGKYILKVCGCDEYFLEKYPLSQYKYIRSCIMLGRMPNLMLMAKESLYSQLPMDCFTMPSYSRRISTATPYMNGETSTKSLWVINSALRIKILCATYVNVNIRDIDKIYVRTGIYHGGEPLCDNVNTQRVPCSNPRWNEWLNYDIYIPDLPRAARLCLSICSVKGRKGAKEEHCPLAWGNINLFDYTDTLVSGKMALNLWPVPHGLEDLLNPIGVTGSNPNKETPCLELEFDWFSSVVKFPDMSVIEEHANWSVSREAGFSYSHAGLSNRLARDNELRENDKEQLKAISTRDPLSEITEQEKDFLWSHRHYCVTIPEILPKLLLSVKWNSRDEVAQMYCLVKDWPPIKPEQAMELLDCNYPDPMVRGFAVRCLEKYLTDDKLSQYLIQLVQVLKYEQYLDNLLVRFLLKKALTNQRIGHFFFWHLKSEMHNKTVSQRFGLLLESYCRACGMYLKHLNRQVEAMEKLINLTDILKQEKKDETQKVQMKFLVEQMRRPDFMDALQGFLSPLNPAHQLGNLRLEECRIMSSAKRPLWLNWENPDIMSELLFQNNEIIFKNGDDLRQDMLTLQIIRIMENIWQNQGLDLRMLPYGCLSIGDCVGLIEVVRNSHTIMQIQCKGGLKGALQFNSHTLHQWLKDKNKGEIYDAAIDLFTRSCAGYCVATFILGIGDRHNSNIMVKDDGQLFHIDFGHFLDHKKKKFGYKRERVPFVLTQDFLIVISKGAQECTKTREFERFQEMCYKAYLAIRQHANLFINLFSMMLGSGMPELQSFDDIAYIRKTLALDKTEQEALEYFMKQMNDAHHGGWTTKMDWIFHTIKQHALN

| Structure (SMILES) | IC50 [nM] |
| --- | --- |
| CC(=O)Nc1ccc(-c2cn3cc(CN4CCN(S(C)(=O)=O)CC4)nc3c(N3CCOCC3)n2)cn1 | 210 |
| COc1ccc(-c2cn3cc(CN4CCN(S(C)(=O)=O)CC4)nc3c(N3CCOCC3)n2)cn1 | 4550 |
| Cc1ccncc1-c1cn2cc(CN3CCN(S(C)(=O)=O)CC3)nc2c(N2CCOCC2)n1 | 468 |
| Cc1ccc(-c2cn3cc(CN4CCN(S(C)(=O)=O)CC4)nc3c(N3CCOCC3)n2)cn1 | 776 |

Compounds with a lower IC50, results first:

| IC50 [nM] | Structure (SMILES) |
| --- | --- |
| 113 | CS(=O)(=O)N1CCN(Cc2cn3cc(-c4cnc5[nH]ccc5c4)nc(N4CCOCC4)c3n2)CC1 |
| 169 | CS(=O)(=O)N1CCN(Cc2cn3cc(-c4ccc(N)nc4)nc(N4CCOCC4)c3n2)CC1 |
| 21.1 | Cc1ncc(-c2cn3cc(CN4CCN(S(C)(=O)=O)CC4)nc3c(N3CCOCC3)n2)cn1 |
| 32.3 | Cc1nc(N)ncc1-c1cn2cc(CN3CCN(S(C)(=O)=O)CC3)nc2c(N2CCOCC2)n1 |
| 110 | CS(=O)(=O)N1CCC2(CC1)CN(Cc1cn3cc(-c4cnc(N)nc4)nc(N4CCOCC4)c3n1)C2 |
| 34 | CN(C)CC(=O)N1CCN(Cc2cn3cc(-c4cnc(N)nc4)nc(N4CCOCC4)c3n2)CC1 |

— BindingDB's records for doi:10.1016/j.bmcl.2012.03.090 (Spanish National Cancer Research Centre (Cnio), 2012)
